From patent US8754047B2, “Peptide compositions and methods of use” (The Research Foundation for the State University of New York, priority 2008, dated 2014) come the findings set out here.

In general, IC50 refers to the concentration that gives 50% inhibition. A lower IC50 goes with higher potency.

Test [1] has as its system SW480 human colon cancer cells. Briefly: In vitro cell viability assay by MTT / cell Titer-Glo, SW480. As to conditions: 24 h. The protocol: 10,000 HT29 or SW480 human colon cancer cells, BxPC-3 human pancreatic cancer cells, and MCF7 and MDA-MB-231 breast cancer cells were obtained from American Type Culture Collection (ATTC), Manassas, Va., and were seeded in separate 96-well plates. After treatment with various concentrations (6.25 μM, 12.5 μM, 25 μM, 50 μM, 100 μM, or 200 μM) of test peptide for 24 h, cells were stained with MTT (3-(4,5-Dimethyl-2-thiazolyl)-2,5-diphenyl-2H-tetrazolium bromide, from Sigma-Aldrich) following the instructions of the manufacturer. Before dissolving MTT in SDS, the HT29 and SW480 cells were photographed using a digital camera connected with a phase-contrast microscope. (FIG. 2A1-8, and FIG. 2B1-6). Cells that are alive convert MTT into formazan in their active mitochondria and appear dark purple; dead cells are not stained by MTT and appear colorless.
The IC50 is the concentration of the test agent that inhibits cell growth by 50% at 24 hours of exposure. IC50s were determined using the MTT assay or using the cell Titer-Glo method and following the instructions of the manufacturer ([…]). […] (Sun, Y., and Rigas, B., (2008), Cancer Res., 68(20): 8269-8277).
The effect of peptide YJB02 on SW480 colon cancer cells was compared to the effect of peptide YJB02 on the normal human colon epithelial cell line NCM460. […] The viability was determined as described in Example 2.
On the technique in general: Cellular ATP, detected with luciferase, serves as a proxy for viable cell number.

In test [2] the test system is MCF-7 human breast cancer cells. Put plainly: Flow cytometry forward/side scatter, proportion of dead cells, MCF7. As to conditions: 200 μM, 24 hr. In kind it is cell-based. As to the method:
SW480 human colon cancer cells and MCF7 breast cancer cells were grown following the instructions of American Type Culture Collection (ATCC, Monassas, Va.). The cells were treated with the test peptides (YJB01, YJB05, or YJB06) for 24 hrs at concentrations ranging from 0 μM, to 200 μM and subjected to flow cytometric analysis following standard protocols.
SW480 human colon cancer cells and MCF7 breast cancer cells were grown following the instructions of American Type Culture Collection (ATCC, Monassas, Va.). The cells were treated with the test peptides for 24 hrs at concentrations ranging from 0 μM, to 200 μM and subjected to flow cytometry analysis following standard protocols. […] The circumscribed (gated, outlined) areas in the figure indicate dead cells; dead cells generally have higher density (side scatter) and smaller size (forward scatter) than living cells.
(A flow cytometer gives signals particle by particle.)

The target of a further test is T1, thioredoxin 1 (Homo sapiens, UniProt P10599).
T1 construct: endogenous in cells; host or cells: SW480 human colon cancer cells
T1 sequence (P10599 1-105): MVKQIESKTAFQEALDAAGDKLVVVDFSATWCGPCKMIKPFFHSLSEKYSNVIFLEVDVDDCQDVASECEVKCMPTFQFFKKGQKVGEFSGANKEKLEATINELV
Briefly: Thioredoxin 1 redox state, native PAGE immunoblot in SW480 cells. Particulars: YJB01 20 μM and 100 μM, YJB05 100 μM. It is filed as cell-based. The protocol:
SW480 human colon cancer cells were grown following the instructions of American Type Culture Collection (ATCC, Monassas, Va.). Cells were treated with either no peptide, with YBJ01 (at 20 μM and 100 μM), or with YBJ05 (at 100 μM). 10^6 cells were lysed in 6 mol/L guanidinium chloride, 50 mmol/L Tris/HCL (pH 8.3), 3 mmol/L EDTA, and 0.5% Triton-X-100 containing 50 mmol/L iodoacetic acid. After 30 min at 37° C., the excess idoacetic acid was removed using Microspin G-25 columns (GE Healthcare Life Sciences). Oxidized and reduced thioredxoin was separated by native PAGE. The gel was electroblotted onto a nitrocellulose membrane and probed with thioredoxin antibodies, followed by HRP-conjugated secondary antibody. Bands corresponding to thioredoxin were visualized by ECL.
SW480 human colon cancer cells were grown following the instructions of American Type Culture Collection (ATCC, Monassas, Va.). Cells were treated with either no peptide, with YBJ01 (at 20 μM and 100 μM), or with YBJ05 (at 100 μM). 10^6 cells from each sample were lysed in 6 mol/L guanidinium chloride, 50 mmol/L Tris/HCL (pH 8.3), 3 mmol/L EDTA, and 0.5% Triton-X-100 containing 50 mmol/L iodoacetic acid. After 30 min at 37° C., the excess idoacetic acid was removed using Microspin G-25 columns (GE Healthcare Life Sciences). Oxidized and reduced thioredxoin was separated by native PAGE. […]
(A western blot detects proteins with antibodies after separation by electrophoresis.)

Test [3] deals with SW480 human colon cancer xenografts. Put plainly: SW480 human colon cancer xenografts in nude mice, tumor volume. In kind it is in vivo. Particulars: for reduction in tumor volume: vs vehicle. As to the method: Xenografts were generated as described in FIG. 3A-B and Example 3 except where noted. Each animal had two xenografts, one on its right flank and one on the left. In these studies, the effect of two doses of YJB01, 100 μg and 500 μg per animal were evaluated. The doses were administrated intraperitoneally once a day dissolved in phosphate buffered saline (PBS). Control animals were injected with PBS. Tumor volume was determined as described in Example 3. Tumor volume is expressed as mean±SEM.
Xenografts were generated as described in the Example 3 except where noted. Each animal had two xenografts, one on its right flank and one on the left. In these studies, the effect of two doses of YJB01, 100 μg and 500 μg per animal were evaluated. The doses were administrated intraperitoneally once a day dissolved in phosphate buffered saline (PBS). Control animals were injected with PBS. Tumor volume was determined as described in Example 3. Tumor volume is expressed as mean±SEM.
Xenografts were generated as described in the Example 3 except that 8 Balb/c nude mice in each group were used in this experiment. Nude mice bearing SW480 xenografts were treated with 500 μg/day of YJB02 for 19 days. The doses were administrated intraperitoneally once a day dissolved in phosphate buffered saline (PBS). Control animals were treated with PBS.
Tumor volume was determined as described in Example 3. Tumor volume was monitored and graphed as set forth in FIG. 9A, and is expressed as mean±SEM.

[4] abbreviates: 500 μg intraperitoneally once a day for 10 days.

“Also recorded” adds a separate entry of the source. Positions of bridges follow the written chain, without caps; N, C: chain ends. Residues, ends and D or L forms follow the SMILES beside them.

`CC[C@H](C)[C@H](NC(=O)[C@H](CCCCN)NC(=O)[C@@H](NC(=O)[C@H](CCC(N)=O)NC(=O)[C@H](CCCNC(=N)N)NC(=O)[C@@H]1CCCN1C(=O)[C@H](CCCCN)NC(=O)[C@@H]1CSSC[C@H](NC(=O)[C@H](Cc2c[nH]c3ccccc23)NC(=O)[C@@H](NC(=O)[C@H](C)N)[C@@H](C)O)C(=O)NCC(=O)N2CCC[C@H]2C(=O)N1)[C@@H](C)CC)C(=O)N[C@@H](Cc1c[nH]c2ccccc12)C(=O)N[C@@H](Cc1ccccc1)C(=O)N[C@@H](CCC(N)=O)C(=O)N[C@@H](CC(N)=O)C(=O)N[C@@H](CCCNC(=N)N)C(=O)N[C@@H](CCCNC(=N)N)C(=O)N[C@@H](CCSC)C(=O)N[C@@H](CCCCN)C(=O)N[C@@H](Cc1c[nH]c2ccccc12)C(=O)N[C@@H](CCCCN)C(=O)N[C@@H](CCCCN)C(=O)O` [YJB01] (H-ATWCGPCKPRQIKIWFQNRRMKWKK-OH; disulfide 4-7; N-terminus and C-terminus assumed) yielded an IC50 in test [1] of 34.7 µM. Also, the “dead cells, MCF7” value in test [2] came to 72.12%. For the same molecule, on thioredoxin 1, the “induction of the oxidized form of thioredoxin 1” value was “induces the oxidized form of thioredoxin 1; also recorded: capable of inducing oxidation”. In addition, the “reduction in tumor volume” value in test [3] (100 μg intraperitoneally once a day for 21 days) is given as 32%; in test [3] (setting [4]), 60%. Moreover, the tumor volume is on record as 527 mm^3 in test [3] (100 μg intraperitoneally once a day for 21 days, vehicle 776 mm^3) and 102 mm^3 in test [3] (500 μg intraperitoneally once a day for 10 days, vehicle 257 mm^3). Further, the “tumor volume compared to its baseline” value in test [3] (setting [4]) is listed as “caused tumor regression”.
